Data on ten molecules can be found in US11464802B2, “3-substituted piperidine compounds for Cbl-b inhibition, and use thereof” (Nurix Therapeutics, Inc., priority 2019, dated 2022).

Each structure is given as a SMILES string. Read-outs that look alike come from different tables or passages of the source. A value given as a limit tells only on which side of the number the result lay.

One experiment deals with Cbl-b (Homo sapiens (Human), UniProt Q13191). Nature of the experiment: Cbl-b displacement assay (Cbl-b inhibition assay), TR-FRET probe displacement, Biological Example 1. The class given is binding. The procedure: Candidate compounds were evaluated for their ability to bind and inhibit Cbl-b, an E3 ubiquitin-protein ligase, as evidenced by their ability to displace a fluorophore-labeled probe (Example 46) bound to Cbl-b.
The ability of candidate compounds to displace a known inhibitor and thereby inhibit Cbl-b activity was measured by monitoring the interaction of Cbl-b with a fluorophore-labeled probe in the presence of the candidate compound. A truncated variant of Cbl-b (UniProt number Q13191; SEQ ID NO:1) containing an Avitag at its N-terminus was co-expressed with BirA biotin ligase and purified using a standard protocol (see Dou et al., Nature Structural and Molecular Biology 8: 982-987, 2013; Avidity LLC).
Fluorescently-labeled inhibitor probe was synthesized and tagged with BODIPY FL (Example 46). Cbl-b displacement assays were performed in a 384-well plate at room temperature in a 10 μL reaction volume by pre-incubating 0.5 nM Cbl-b or 0.125 nM Cbl-b (final concentration, indicated as “High” and “Low”, respectively) in an assay buffer containing 20 mM HEPES pH 7.5, 150 mM NaCl, 0.01% Triton X-100, 0.01% BSA, and 0.5 mM TCEP in the presence of a candidate compound in 1% DMSO (final concentration) for 1 hour. After incubation in the presence of the candidate compound, the plate was incubated for an additional 1 hour in the presence of an approximate EC40 binding saturation consisting of 150 nM fluorescently-labeled inhibitor probe and 2 nM Streptavidin-Terbium (Cisbio) (final concentrations). Following the 1 hour incubation, the plates were read for TR-FRET signal at 520/620 nM using an Envision plate reader (Perkin Elmer).
(In TR-FRET formats the signal depends on donor and acceptor labels being close together.)

Experiment [1] concerns primary human total T-cells. The experiment in a line: Primary human total T-cell activation: IL-2 secretion, Biological Example 2. The class given is cell-based. Particulars: 48 hours, fold change over baseline; for fold induction at 0.3 µM: inhibitor 0.3 μM; for fold induction at 1 µM: inhibitor 1 μM; for fold induction at 3 µM: inhibitor 3 μM.
Experiment [2] relates to primary human total T-cells. Nature of the experiment: Primary human total T-cell activation: CD25 surface staining, Biological Example 2. The class given is cell-based. As to conditions: 48 hours, fold change over baseline; for fold induction at 0.3 µM: inhibitor 0.3 μM; for fold induction at 1 µM: inhibitor 1 μM; for fold induction at 3 µM: inhibitor 3 μM.
Setting [3] is: 0.5 nM Cbl-b final concentration (High), read-out: Cbl-b activity IC50 (High).
The mark [4] stands for this setting: anti-CD3/anti-CD28 co-stimulation.
Where [5] appears, read: anti-CD3/anti-CD28 co-stimulation, read-out: IL-2 secretion CD3/CD28 1 μM.
[6] abbreviates: anti-CD3 alone, read-out: IL-2 secretion CD3 1 μM.
Setting [7] is: anti-CD3/anti-CD28 co-stimulation, read-out: CD25 staining CD3/CD28 1 μM.
Setting [8] is: anti-CD3 alone, read-out: CD25 staining CD3 1 μM.
Where [9] appears, read: Cbl-b concentration (High or Low) not given, read-out: IC50 values in the Cbl-b inhibition assay of Biological Example 1.
Setting [10] is: 0.125 nM Cbl-b final concentration (Low), read-out: Cbl-b activity IC50 (Low).

Sequence of Cbl-b (Q13191 36-427): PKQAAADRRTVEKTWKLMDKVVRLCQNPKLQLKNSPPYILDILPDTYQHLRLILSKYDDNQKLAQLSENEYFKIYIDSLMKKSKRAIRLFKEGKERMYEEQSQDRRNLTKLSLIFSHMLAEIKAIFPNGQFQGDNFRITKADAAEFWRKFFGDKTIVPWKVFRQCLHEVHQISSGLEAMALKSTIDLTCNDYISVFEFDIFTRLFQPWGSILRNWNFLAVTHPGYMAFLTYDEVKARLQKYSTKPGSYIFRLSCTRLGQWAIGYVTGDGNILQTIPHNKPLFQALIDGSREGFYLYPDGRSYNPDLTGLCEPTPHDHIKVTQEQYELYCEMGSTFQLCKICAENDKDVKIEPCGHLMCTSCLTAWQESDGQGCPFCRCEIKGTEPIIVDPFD

For orientation: IC50 means the concentration that inhibits the measured activity by half. Take `Cn1cnnc1CC1(c2cccc(N3Cc4c(cc(CN5CCC(F)(F)[C@]6(CCOC6)C5)cc4C(F)(F)F)C3=O)c2)COC1` [Compound 13, (R)-6-((10,10-difluoro-2-oxa-7-azaspiro[4.5]decan-7-yl)methyl)-2-(3-(3-((4-methyl-4H-1,2,4-triazol-3-yl)methyl)oxetan-3-yl)phenyl)-4-(trifluoromethyl)isoindolin-1-one]: the half-inhibitory concentration (IC50) at Cbl-b (setting [3]) lay within 1 to 5 nM. Also, the values for the fold induction at 0.3 µM in experiment [1] (setting [4]) and in experiment [2] (setting [4]) were 11 to 15 and less than 1.24, respectively. For the same molecule, the fold induction at 1 µM in experiment [1] (setting [5]) is 11 to 15; in experiment [1] (setting [6]) it was 0.34 to 0.66; in experiment [2] (setting [7]), less than 1.24; in experiment [2] (setting [8]) it was 1.05 to 1.14. Also, the fold induction at 3 µM in experiment [1] (anti-CD3 alone) was 0.34 to 0.66; in experiment [2] (anti-CD3 alone), less than 1.04.
Regarding `Cn1cnnc1CC1(c2cccc(N3Cc4c(cc(CN5CCCC6(COC6)C5)cc4C(F)(F)F)C3=O)c2)COC1` [Compound 12, 6-((2-oxa-6-azaspiro[3.5]nonan-6-yl)methyl)-2-(3-(3-((4-methyl-4H-1,2,4-triazol-3-yl)methyl)oxetan-3-yl)phenyl)-4-(trifluoromethyl)isoindolin-1-one], the IC50 at Cbl-b (setting [3]) and on Cbl-b (setting [9]) was 5.1 to 100 nM each time. Also, the fold induction at 0.3 µM in experiment [1] (setting [4]) was less than 10; in experiment [2] (setting [4]), 1.25 to 1.39. Moreover, the fold induction at 1 µM was 11 to 15 in experiment [1] (setting [5]), less than 0.33 in experiment [1] (setting [6]), 1.25 to 1.39 in experiment [2] (setting [7]) and less than 1.04 in experiment [2] (setting [8]). Besides, the fold induction at 3 µM in experiment [1] (anti-CD3 alone) was less than 0.33; in experiment [2] (anti-CD3 alone), 1.05 to 1.14.
Turning to `Cn1cnnc1CC1(c2cccc(N3Cc4c(cc(CN5CCC(F)(F)[C@H](CO)C5)cc4C(F)(F)F)C3=O)c2)COC1` [Compound 15, (S)-6-((4,4-difluoro-3-(hydroxymethyl)piperidin-1-yl)methyl)-2-(3-(3-((4-methyl-4H-1,2,4-triazol-3-yl)methyl)oxetan-3-yl)phenyl)-4-(trifluoromethyl)isoindolin-1-one], the half-maximal inhibitory concentration (IC50) on Cbl-b (setting [3]) fell in the range of 1 to 5 nM. Besides, the fold induction at 0.3 µM is less than 10 in experiment [1] (setting [4]) and less than 1.24 in experiment [2] (setting [4]). Besides, the fold induction at 1 µM was 11 to 15 in experiment [1] (setting [5]), less than 0.33 in experiment [1] (setting [6]), less than 1.24 in experiment [2] (setting [7]) and 1.05 to 1.14 in experiment [2] (setting [8]). Further, the fold induction at 3 µM lay in the range of 0.34 to 0.66 in experiment [1] (anti-CD3 alone) and 1.05 to 1.14 in experiment [2] (anti-CD3 alone).
On to `C[C@@H]1CN([C@@H](C)c2cc3c(c(C4CC4)n2)CN(c2cccc(C4(Cc5nncn5C)COC4)c2)C3=O)CCC1(F)F` [Compound 49, 4-cyclopropyl-6-((S)-1-((R)-4,4-difluoro-3-methylpiperidin-1-yl)ethyl)-2-(3-(3-((4-methyl-4H-1,2,4-triazol-3-yl)methyl)oxetan-3-yl)phenyl)-2,3-dihydro-1H-pyrrolo[3,4-c]pyridin-1-one], for which the half-maximal inhibitory concentration (IC50) on Cbl-b (setting [10]) was less than 1 nM. In addition, the fold induction at 0.3 µM in experiment [1] (setting [4]) was greater than 15; in experiment [2] (setting [4]), greater than 1.39. Besides, the fold induction at 1 µM in experiment [1] (setting [5]) is greater than 15; in experiment [1] (setting [6]) it was greater than 0.66; in experiment [2] (setting [7]), greater than 1.39; in experiment [2] (setting [8]), greater than 1.14. The fold induction at 3 µM in experiment [1] (anti-CD3 alone) was greater than 0.66; in experiment [2] (anti-CD3 alone), greater than 1.14.
On to `C[C@H]1CN(Cc2cc(C(=O)Nc3cccc(C4(Cc5nncn5C)COC4)c3)nc(C3CC3)c2)CCC1(F)F` [Compound 33, 6-cyclopropyl-4-{[(3S)-4,4-difluoro-3-methylpiperidin-1-yl]methyl}-N-(3-{3-[(4-methyl-1,2,4-triazol-3-yl)methyl]oxetan-3-yl}phenyl)pyridine-2-carboxamide], for which, at Cbl-b (setting [3]), the IC50 lay in the range of 1 to 5 nM. Also, the values for the fold induction at 0.3 µM in experiment [1] (setting [4]) and in experiment [2] (setting [4]) were 11 to 15 and less than 1.24, respectively. Moreover, the fold induction at 1 µM is 11 to 15 in experiment [1] (setting [5]), less than 0.33 in experiment [1] (setting [6]), less than 1.24 in experiment [2] (setting [7]) and 1.05 to 1.14 in experiment [2] (setting [8]). The fold induction at 3 µM in experiment [1] (anti-CD3 alone) lay within 0.34 to 0.66; in experiment [2] (anti-CD3 alone) it was 1.05 to 1.14.
In the case of `C[C@@H]1CN(Cc2cc3c(c(C(F)(F)F)c2)CN(c2cccc(C4(Cc5nncn5C(F)F)COC4)c2)C3=O)CCC1(F)F` [Compound 31, (R)-6-((4,4-difluoro-3-methylpiperidin-1-yl)methyl)-2-(3-(3-((4-(difluoromethyl)-4H-1,2,4-triazol-3-yl)methyl)oxetan-3-yl)phenyl)-4-(trifluoromethyl)isoindolin-1-one], the concentration for half-maximal inhibition (IC50) at Cbl-b (setting [10]) and at Cbl-b (setting [9]) was 1 to 5 nM in each case. For the same molecule, the fold induction at 0.3 µM in experiment [1] (setting [4]) is greater than 15; in experiment [2] (setting [4]), greater than 1.39. In addition, the fold induction at 1 µM in experiment [1] (setting [5]) is greater than 15; in experiment [1] (setting [6]), greater than 0.66; in experiment [2] (setting [7]) it was greater than 1.39; in experiment [2] (setting [8]), less than 1.04. Moreover, the fold induction at 3 µM was greater than 0.66 in experiment [1] (anti-CD3 alone) and less than 1.04 in experiment [2] (anti-CD3 alone).
As to `C[C@H]1CCCN(Cc2cc3c(c(C(F)(F)F)c2)CN(c2cc(C4(Cc5nncn5C)COC4)cc(Cl)n2)C3=O)C1` [Compound 47, 2-(6-chloro-4-{3-[(4-methyl-1,2,4-triazol-3-yl)methyl]oxetan-3-yl}pyridin-2-yl)-6-{[(3S)-3-methylpiperidin-1-yl]methyl}-4-(trifluoromethyl)-3H-isoindol-1-one], the IC50 at Cbl-b (setting [10]) and at Cbl-b (setting [9]) was 5.1 to 100 nM in each case. In addition, the fold induction at 0.3 µM in experiment [1] (setting [4]) was greater than 15; in experiment [2] (setting [4]), greater than 1.39. Besides, the fold induction at 1 µM in experiment [1] (setting [5]) was greater than 15; in experiment [1] (setting [6]) it was greater than 0.66; in experiment [2] (setting [7]) it was greater than 1.39; in experiment [2] (setting [8]), greater than 1.14. For the same molecule, the fold induction at 3 µM in experiment [1] (anti-CD3 alone) is greater than 0.66; in experiment [2] (anti-CD3 alone) it was greater than 1.14.
On to `C[C@H]1C[C@H](CO)CN(Cc2cc3c(c(C(F)(F)F)c2)CN(c2cccc(C4(Cc5nncn5C)COC4)c2)C3=O)C1` (relative stereo) [Compound 22, trans-6-{[3-(hydroxymethyl)-5-methylpiperidin-1-yl]methyl}-2-(3-{3-[(4-methyl-1,2,4-triazol-3-yl)methyl]oxetan-3-yl}phenyl)-4-(trifluoromethyl)-3H-isoindol-1-one], for which the concentration for half-maximal inhibition (IC50) on Cbl-b (setting [10]) and on Cbl-b (setting [9]) was less than 1 nM throughout. The results for the fold induction at 0.3 µM in experiment [1] (setting [4]) and in experiment [2] (setting [4]) were greater than 15 and greater than 1.39, respectively. Moreover, the fold induction at 1 µM in experiment [1] (setting [5]) is greater than 15; in experiment [1] (setting [6]) it was greater than 0.66; in experiment [2] (setting [7]), greater than 1.39; in experiment [2] (setting [8]), less than 1.04. Moreover, the figures for the fold induction at 3 µM in experiment [1] (anti-CD3 alone) and in experiment [2] (anti-CD3 alone) were greater than 0.66 and less than 1.04, respectively.
Turning to `C[C@H]1CCCN(Cc2cc3c(c(C(F)(F)F)c2)CN(c2cccc(C4(Cc5nncn5C)COC4)c2)C3=O)[C@H]1C` (relative stereo) [Compound 19, 6-((cis-2,3-dimethylpiperidin-1-yl)methyl)-2-(3-(3-((4-methyl-4H-1,2,4-triazol-3-yl)methyl)oxetan-3-yl)phenyl)-4-(trifluoromethyl)isoindolin-1-one], the IC50 at Cbl-b (setting [10]) was in the range of 1 to 5 nM. In addition, the fold induction at 0.3 µM in experiment [1] (setting [4]) was less than 10; in experiment [2] (setting [4]), 1.25 to 1.39. Besides, the fold induction at 1 µM in experiment [1] (setting [5]) is 11 to 15; in experiment [1] (setting [6]), less than 0.33; in experiment [2] (setting [7]), 1.25 to 1.39; in experiment [2] (setting [8]), 1.05 to 1.14. The fold induction at 3 µM in experiment [1] (anti-CD3 alone) lay in the range of 0.34 to 0.66; in experiment [2] (anti-CD3 alone), 1.05 to 1.14.
Take `C[C@H]1CCCN([C@H](C)c2cc3c(c(C4CC4)n2)CN(c2cccc(C4(Cc5nncn5C)COC4)c2)C3=O)C1` [Compound 52, 4-cyclopropyl-2-(3-(3-((4-methyl-4H-1,2,4-triazol-3-yl)methyl)oxetan-3-yl)phenyl)-6-((R)-1-((S)-3-methylpiperidin-1-yl)ethyl)-2,3-dihydro-1H-pyrrolo[3,4-c]pyridin-1-one]: the IC50 on Cbl-b (setting [10]) and at Cbl-b (setting [9]) was 1 to 5 nM throughout. For the same molecule, the fold induction at 0.3 µM is greater than 15 in experiment [1] (setting [4]) and greater than 1.39 in experiment [2] (setting [4]). The fold induction at 1 µM in experiment [1] (setting [5]) is greater than 15; in experiment [1] (setting [6]) it was greater than 0.66; in experiment [2] (setting [7]), greater than 1.39; in experiment [2] (setting [8]), greater than 1.14. For the same molecule, the fold induction at 3 µM in experiment [1] (anti-CD3 alone) was greater than 0.66; in experiment [2] (anti-CD3 alone), greater than 1.14.
